Assay in all cases: growth of human tumour cells (NCI), 48 h
Test [1] concerns 786-0 renal.
The subject of test [2] is COLO 205 colon.
Test [3] concerns K-562 leukemia.
In test [4] the test system is MALME-3M melanoma.
The subject of test [5] is MDA-MB-231 breast.
For test [6], the system named is OVCAR-3 ovarian.
Test [7] deals with RPMI-8226 leukemia.
Test [8] relates to SF-268 CNS.
The subject of test [9] is SK-MEL-2 melanoma.
In test [10] the test system is SNB-75 CNS.

Molecules are shown by their SMILES. “And” between values parts separate entries of the source, which are not always exact repeats. Equal values may be shown once.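 The compound was tested at five concentrations on cells cultured in 96-well plates, with a 48-hour exposure period. At the GI50, growth is halved. TGI: total growth inhibition.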

We go through 14 compounds from PubChem BioAssay (NCI).

With `COc1cc2c(cc1OC)-c1c(c3ccc([N+](=O)[O-])cc3c(=O)n1CCCN)C2=O`, the GI50 was 0.716 µM in test [1]; 1.83 µM in test [2]; 0.955 µM in test [3]; 5.31 µM in [4]; 0.521 µM in [5]; 8.42 µM in test [6]. Further, the GI50 in test [7] is 0.812 µM; in test [8], 1.4 µM; in test [9], 5.95 µM. In addition, the TGI in test [1] came out at 1.84 µM; in test [2], 8.85 µM; in test [3], 2.65 µM; in test [4], 16.4 µM; in [5], 1.54 µM; in [6] it was 18.4 µM. Further, the TGI turned out to be 3.52 µM in [7], 12.3 µM in test [8] and 14.1 µM in [9].

Turning to `CC(C)=CC1CC(C)C2(CCC3(C)CC4C(C(=O)CC4(C)O)/C(C=O)=C\CC32)O1` (centres undefined), the TGI in test [1] was determined as 0.0438 µM; in [2], 0.153 µM; in [3], 0.232 µM; in test [5], 0.237 µM; in test [6], 0.0503 µM; in test [7] it was 0.0613 µM. Moreover, the TGI came to 0.275 µM in test [8], 0.316 µM in [9] and 0.237 µM in test [10].

With `COc1ccc2[nH]cc(-c3nc(-c4c[nH]c5ccncc45)cs3)c2c1`, the GI50 in [1] was 1.84 µM; in [3], 1.72 µM; in [4], 2 µM; in [5], 1.65 µM; in test [6], 2.18 µM; in [7] it was 2.08 µM. Further, the values for the GI50 in test [8], in test [9] and in test [10] were 2.61 µM, 2.05 µM and 6.96 µM, respectively. Besides, the TGI in test [1] is 3.41 µM; in test [3] it was 4.7 µM; in [4], 3.58 µM; in test [5] it was 3.25 µM; in test [6] it was 4.07 µM; in [7], 4.76 µM. Further, the figures for the TGI in test [8], in test [9] and in [10] were 6.97 µM, 3.91 µM and 20.1 µM, respectively.

Turning to `NC1=NC(c2ccc(F)cc2)C2=C(N1)c1ccc3ccccc3c1OCC2` (centres undefined), the GI50 in test [1] is 79.7 µM; in [3] it was 3.1 µM; in test [4] it was 18.5 µM; in [5] it was 47.4 µM; in test [6], 2.73 µM; in test [8], 18.2 µM. For the same compound, the GI50 in [9] was greater than 100 µM; in test [10], 16.5 µM. For the same compound, the TGI in [1], in test [3], in test [4], in [5], in test [6] and in [8] was greater than 100 µM throughout. Also, the TGI is greater than 100 µM in [9] and 70.5 µM in test [10].

Turning to `CC1(C)N[P+]2(Nc3ccccc3O2)OC1=O` (centres undefined), the TGI in test [1] is greater than 100 µM; in [2] it was 49.9 µM; in test [3], greater than 100 µM; in test [4], greater than 100 µM; in [5], greater than 100 µM; in test [6], greater than 100 µM. For the same compound, the TGI in test [7], in [8] and in test [10] was greater than 100 µM in each case.

Consider `COc1ccc(-c2csc3c2-n2cccc2C3=O)cc1O`, for which the GI50 in test [1] is 0.0977 µM; in test [2], 9.77 µM; in test [3] it was less than 0.01 µM; in test [4] it was 35.3 µM; in test [5] it was 0.0925 µM; in [6] it was less than 0.0152 µM. For the same compound, the GI50 in test [7] is 0.0176 µM; in test [8], less than 0.0284 µM; in [10] it was 0.0281 µM. In addition, the TGI in test [1] is 25.2 µM; in test [2] it was 26.3 µM; in [3], greater than 100 µM; in [4], greater than 100 µM; in test [5], greater than 100 µM; in test [6], 0.0434 µM. The TGI in test [7] is 3.16 µM; in [8], greater than 82.2 µM; in test [10] it was greater than 100 µM.

Take `COc1ccc(-c2nc3sc4c(c3c(=O)[nH]2)CCCC4)c2ccccc12`: the TGI in test [1] is 3.8 µM; in test [3] it was greater than 100 µM; in [4], 9.03 µM; in [5], greater than 100 µM; in test [7] it was greater than 100 µM; in test [8], greater than 100 µM. The TGI in test [10] was 0.792 µM and 1.61 µM. Also, the GI50 in test [4] was 0.749 µM.

With `Cc1ccc(/C(=C/C=C(C#N)C#N)Sc2ccccn2)cc1`, the GI50 in [1] is 2.15 µM; in test [2] it was 1.72 µM; in test [3] it was 1.55 µM; in test [4], 4.09 µM; in test [5], 2.3 µM; in test [6], 2.09 µM. In addition, the GI50 in test [8] is 3.37 µM; in test [9], 7.15 µM; in test [10], 5.18 µM. For the same compound, the TGI turned out to be 5.64 µM in test [1]; 3.79 µM in test [2]; 10.8 µM in [3]; 17.3 µM in test [4]; 7.45 µM in test [5]; 8.25 µM in [6]. Besides, the TGI was found to be 12.3 µM in test [8], 35.6 µM in test [9] and 18.4 µM in test [10].

Take `CC[C@@]1(O)C(=O)OCc2c1cc1n(c2=O)Cc2cc3c(NC(=O)CN)cccc3nc2-1`: the TGI is 3 µM in test [1]; greater than 51.3 µM in test [2]; greater than 100 µM in [3]; greater than 73 µM in [5]; 9.34 µM in test [6]; 28.6 µM in [7]. Further, the TGI in test [8] was greater than 39.8 µM; in [9] it was 14.8 µM; in [10] it was 0.693 µM.

As for `COc1ccc2c(c1)[C@@]1(C)CCC3c4ccc(O)cc4CCC3C1C2` (some centres undefined), the GI50 in test [1] was 15.3 µM; in test [2] it was 14.7 µM; in test [3], 14.8 µM; in test [4] it was 18.7 µM; in [5], 13.8 µM; in test [6], 14.7 µM. Also, the GI50 in [7] was 14.8 µM; in test [8] it was 16.3 µM; in test [10] it was 16.6 µM. The TGI came to 29.2 µM in test [1]; 31 µM in test [2]; 48.4 µM in test [3]; 34.8 µM in [4]; 27.8 µM in [5]; 29.1 µM in [6]. Further, the TGI worked out at 39.8 µM in test [7], 32.6 µM in [8] and 30.9 µM in [10].

For `COc1ccc(/C=C\c2cc(OC)c(OC)c(OC)c2)cc1OCC(=O)Nc1nc2ccc(OC(F)(F)F)cc2s1`, the GI50 is 54.3 µM in [1]; 43.3 µM in test [2]; 3.43 µM in test [3]; 5.16 µM in test [5]; 3.37 µM in [6]; 5.83 µM in [7]. The GI50 in [8] is 6.01 µM; in test [9] it was 3.29 µM; in test [10], 1.56 µM. The TGI is greater than 100 µM in test [1]; greater than 100 µM in test [2]; greater than 100 µM in test [3]; greater than 100 µM in test [5]; 11.3 µM in test [6]; greater than 100 µM in test [7]. Moreover, the TGI in test [8] is greater than 100 µM; in [9], greater than 100 µM; in [10], 7.68 µM.

As for `O=C1C=CC(=O)c2c1ncc1c2nc2sccn21`, the GI50 in test [1] was 15.5 µM; in [2] it was 40.3 µM; in [3], 30.1 µM; in test [4], 12.7 µM; in [5], 14.6 µM; in test [6], 20.3 µM. Also, the GI50 in [7] is 12.7 µM; in [8] it was 18.5 µM; in test [9], 42.8 µM. Also, the TGI was 36.3 µM in [1]; greater than 100 µM in test [2]; greater than 100 µM in test [3]; 26.5 µM in [4]; 39 µM in test [5]; 63.4 µM in [6]. Further, the values for the TGI in test [7], in test [8] and in test [9] were 47.4 µM, greater than 100 µM and greater than 100 µM, respectively.

In the case of `COc1cc(OC)cc(-c2cncn2-c2ccc(-c3nc4cc(OC)cc(OC)c4s3)cc2)c1`, the GI50 in test [1] is 7.6 µM; in test [3], 3.22 µM; in [5], 9.01 µM; in test [6], 2.87 µM; in test [8], 11.3 µM; in test [9], 9.69 µM. The GI50 in [10] is 3.28 µM. Also, the TGI in [1], in [3], in [5], in test [6], in test [8] and in [9] was greater than 100 µM in each case. In addition, the TGI in test [10] was found to be 17.9 µM.

On to `Cc1ccc(Oc2nc3ccccc3cc2-c2nnc(Cn3c(COc4ccccc4)nc4ccccc43)o2)cc1`, for which the GI50 is 3.09 µM in [1]; 1.89 µM in test [2]; 2.59 µM in test [3]; 3.65 µM in test [4]; 1.64 µM in test [5]; 2.41 µM in test [6]. Moreover, the GI50 in [7] is 2.39 µM; in [8] it was 3.41 µM; in [10], 2.16 µM. The TGI in test [1] was 11.8 µM; in test [2] it was 4.44 µM; in test [3] it was greater than 100 µM; in [4] it was 15.6 µM; in test [5], 4.62 µM; in test [6], 6.65 µM. For the same compound, the figures for the TGI in [7], in test [8] and in [10] were 8.45 µM, 15.9 µM and 9.74 µM, respectively.
